Laboratory results: patent US7122337B2, “Method for determining calciotropic activity of a preparation of Padina pavonic algae” (Texinfine SA, priority 2001, dated 2006)

Tests used:
human cell line G292 = assay: Fixing of calcium by the osteoblast cell line G292; type: cell-based; set-up: Fixed calcium, Average: unit not given here; conditions: for Fixing the calcium (fixed calcium): G292, Example I, controls = 1,000
Experimental: (§1) More precisely, the process according to the invention consists of preparing a suspension of a human or animal osseous cell line, by adjusting the cellular density determined by turbidimetry or by calculating from a reference value, leaving to incubate for one to three days at 37° C. in the presence of carbon dioxide and of a complete culture medium (CCM), adding to some wells an agent inhibiting the fixing of calcium or a calciotropic hormone, and some extract to be titrated, eliminating the supernatants from the culture, rinsing out the wells with a rinsing medium without calcium or magnesium (P.B.S. for example) in such a way as to eliminate the non-fixed calcium from the culture medium, eliminating the supernatant fractions, and adjusting the volume of the dispersion with a fixed volume of mineral acid such as hydrochloric acid, sulphuric acid, phosphoric acid or perchloric acid or with any other product capable of destroying the extracellular matrix built up by the cells being cultured. […] NT-690.005.
(§2) The material to be tested is dosed on a cell culture. An analysis is carried out of the calcium fixed by the osseous cells. To do this, the calcium fixed by an osteoblastic cell line is dosed. In a non-limiting way, UMR 106 and G292, in the presence or not of deleterious agents such as the Inh-Ca and the IL-1 may be cited. The preparation to be analysed will also itself be tested, on the same cell line in the presence or not of agents such as Inh-Ca and IL-1.
In these same conditions, calcium fixed by the same cell line in the presence of estradiol is dosed and a calibration scale is produced, expressed in weight of estradiol This calibration scale ranges from 10^−3 to 10^−10 mol of estradiol or more frequently between 10^−7 and 10^−9 mol of estradiol. In this way, it is possible to establish a correlation between the activity of the extract of Padina and an active quantity of estradiol. We should stress that this comparison is made between the activity of estradiol directly on the cell culture with the active extract of Padina in the presence of deleterious agents such as an Inh-Ca or IL-1. So it is not a true weight comparison and it is proposed that the result should be expressed in Units of Activity (UA). A unit of activity is defined as the quantity of extract capable of increasing by 50% the quantity of calcium fixed by 400,000 cells cultivated for 48 hours in the presence of 1 ng of interleukin 1 per 1 ml well. The IL-1 can be replaced by another agent inhibiting the fixing of calcium at an equi-active dose.
The extracts of Padina have been described, in particular in the European patent application EP 0.655.250. The algae is then depleted after drying, by a hydrocarbonated solvent such as cyclohexane or acetone, the vegetable matter is separated, and the extracted product is filtered then evaporated until dry. A quantity of dry extract weighed precisely is then dissolved in ethanol. Determining its activity is the object of the present invention. In concrete terms, the process according to the invention consists of preparing a suspension of culture of the human cell line G292 (ECAC no. 901-110522), adjusting the cell density to 400,000 cells per ml of complete culture medium (CCM), supplemented by 10% of fetal calf serum. The cell suspension is distributed at the rate of 1 ml per well on plates of 24 wells. It is left to incubate overnight in an atmosphere of CO2 at 37°. The supernatants are separated then dilution is carried out by a new addition of CCM. An aliquot fraction of IL-1 is prepared and 5 μl of interleukin IL1 solution is added, namely 1 ng per well in the wells for the cells which receive only one inhibiting treatment per IL-1.
(§3) For each trial of solution to be titrated, 5 μl of solution of Padina extract is added. It is then left to incubate for the length of time necessary to carry out the trial, normally between 24 and 72 hours, and preferably 48 hours. […]

Osteoblasts = assay: Fixing of calcium by osteoblasts (Example I); type: cell-based
Experimental: as §1
The extracts or powders of the algae Padina pavonica have the effect of stimulating biological activity (synthesis of proteins and glycoaminoglycanes) but also act to restore physiological functions such as the fixing of calcium by osteogenic cells. For this, the fixed calcium is dosed with a fixed cell line, such as for example the cell line UMR 106 or the line G 292, in the presence or not of deleterious agents such as inhibitors of the calcic canals and pro-inflammatory agents such as IL 1. Normal osteoblasts give good results, but their availability presents a problem. The preparation to be analysed is tested in parallel on the same cell line, in the presence or not of these same deleterious agents. The quantity of fixed calcium in relation to that obtained with the calciotropic agent and with those obtained in the presence of agents inhibiting the fixing of calcium are compared.
as §2, §3

[1] = calcic inhibitor alone, 10 μg, control 1.194
[2] = agent in the presence of IL-1, controls = 1,000

| SMILES | Fixed calcium, Average (human cell line G292; [1]) | Fixing the calcium (fixed calcium) (Osteoblasts; agent alone, controls = 1,000) | Fixing the calcium (fixed calcium) (Osteoblasts; [2]) | Fixed calcium, Average (human cell line G292; Estradiol 10^−7 alone, control 1.194) | Fixed calcium, Average (human cell line G292; Estradiol 10^−8 alone, control 1.194) | Fixed calcium, Average (human cell line G292; Estradiol 10^−9 alone, control 1.194) | Fixed calcium, Average (human cell line G292; Estradiol + Cinchonine, control 1.194, Cinchonine 0.059) | Fixed calcium, Average (human cell line G292; Estradiol + IL-1, control 1.194, IL-1 0.315) | Fixed calcium, Average (human cell line G292; Estradiol + Verapamil, control 1.194, Verap 0.383) | Fixing the calcium (fixed calcium) (human cell line G292; agent alone) | Fixing the calcium (fixed calcium) (human cell line G292; agent in the presence of IL-1) |
| --- | --- | --- | --- | --- | --- | --- | --- | --- | --- | --- | --- |
| C=C[C@H]1C[N@@]2CC[C@H]1C[C@@H]2[C@@H](O)c1ccnc2ccccc12 [Cinchonine] | 0.059 | – | – | – | – | – | – | – | – | – | – |
| C[C@]12CC[C@@H]3c4ccc(O)cc4CC[C@H]3[C@@H]1CC[C@@H]2O [Est, Estradiol] | – | 1,843 | 0,200 | 1.151 | 1.115 | 0.706 | 0.357 | 0.357 | 0.373 | 2,648 | 0,070 |
| COc1ccc(CCN(C)CCCC(C#N)(c2ccc(OC)c(OC)c2)C(C)C)cc1OC (stereo not shown) [Verap, Verapamil] | 0.383 | – | – | – | – | – | – | – | – | – | – |
| C=C1CC[C@H](O)C/C1=C/C=C1\CCC[C@]2(C)[C@@H]([C@H](C)CCCC(C)C)CC[C@@H]12 [D3, Vitamin D3] | – | 1,215 | 0,125 | – | – | – | – | – | – | 1,540 | 0,070 |
